In US9040458B2, “Safening composition of 6-(trisubstituded phenyl)-4-amino-2-pyridinecarboxylate herbicides and cloquintocet-mexyl for cereal crops” (Dow AgroSciences LLC, priority 2008, dated 2015):
Counter-ions that a name gives are not always drawn.

Legend:
[1] = system: TRZAS = Triticum aestivum (spring wheat); assay: Postemergence herbicidal safening, greenhouse, visual injury; assay type: in vivo; settings: 20-22 d
Experimental: (§1) Seeds of the desired test plant species were planted in Sun Gro MetroMix® 306 planting mixture, which typically has a pH of 6.0 to 6.8 and an organic matter content of about 30 percent, in plastic pots with a surface area of 103.2 square centimeters (cm^2). When required to ensure good germination and healthy plants, a fungicide treatment and/or other chemical or physical treatment was applied. The plants were grown for 7-36 days (d) in a greenhouse with an approximate […] photoperiod which was maintained at about 18° C. during the day and 17° C. during the night. Nutrients and water were added on a regular basis and supplemental lighting was provided with overhead metal halide 1000-Watt lamps as necessary. The plants were employed for testing when they reached the second or third true leaf stage.
(§2) Weighed amounts of esters (methyl) or salts (TEA [triethylammonium], potassium [K]) of 4-amino-3-chloro-6-(4-chloro-2-fluoro-3-methoxyphenyl)pyridine-2-carboxylic acid (Compound 1) were dissolved in a volume of 97:3 volume/volume (v/v) acetone/dimethylsulfoxide (DMSO) to obtain stock solutions. […] The concentrated stock solutions were diluted with an aqueous mixture of 1.5% v/v of Agri-dex crop oil concentrate to provide the appropriate application rates. Compound requirements are based upon a 12 mL application volume at a rate of 187 liters per hectare (L/ha). Stocks solutions of the safeners were prepared following the same procedure. Spray solutions of the safeners and experimental compound mixtures were prepared by adding the appropriate volume of both stock solutions to the appropriate amount of dilution solution to form a 12 mL spray solution with active ingredients in two-way combinations. Formulated compounds were applied to the plant material with an overhead Mandel track sprayer equipped with 8002E nozzles calibrated to deliver 187 L/ha over an application area of 0.503 square meters (m^2) at a spray height of 18 inches (43 centimeters (cm)) above average plant canopy. Control plants were sprayed in the same manner with the solvent blank.
(§3) The treated plants and control plants were placed in a greenhouse as described above and watered by sub-irrigation to prevent wash-off of the test compounds. After 20-22 d, the condition of the test plants as compared with that of the control plants was determined visually and scored on a scale of 0 to 100 percent where 0 corresponds to no injury and 100 corresponds to complete kill.
(§4) Colby's equation was used to determine the herbicidal effects expected from the mixtures (Colby, S. R., Calculation of the synergistic and antagonistic response of herbicide combinations. Weeds 1967, 15, 20-22.).
(§5) The following equation was used to calculate the expected activity of mixtures containing two active ingredients, A and B: Expected=A+B−(A×B/100)
(§6) A=observed efficacy of active ingredient A at the same concentration as used in the mixture.
(§7) B=observed efficacy of active ingredient B at the same concentration as used in the mixture.

[2] = system: HORVS = Hordeum vulgare (spring barley); assay: as above; assay type: in vivo; settings: 20-22 d
Experimental: as §1, §2, §3, §4, §5, §6, §7

[3] = system: SASKR = Salsola iberica (Russian thistle); assay: Postemergence herbicidal activity, greenhouse, visual injury; assay type: in vivo; settings: applied alone at 140 g/ha; 20-22 d; listed as (1) K-salt
Experimental: as §1, §2, §3, §4, §5, §6, §7

[4] = system: MATCH = Matricaria chamomila (scented mayweed); assay: as above; assay type: in vivo; settings: applied alone at 140 g/ha; 20-22 d; listed as (1) K-salt
Experimental: as §1, §2, §3, §4, §5, §6, §7

[5] = system: VIOTR = Viola tricolor (wild pansy); assay: as above; assay type: in vivo; settings: applied alone at 140 g/ha; 20-22 d; listed as (1) K-salt
Experimental: as §1, §2, §3, §4, §5, §6, §7

[6] = system: KCHSC = Kochia scoparia (kochia); assay: as above; assay type: in vivo; settings: applied alone at 140 g/ha; 20-22 d; listed as (1) K-salt
Experimental: as §1, §2, §3, §4, §5, §6, §7

[7] = system: VERPE = Veronica persica (bird's-eye speedwell); assay: as above; assay type: in vivo; settings: applied alone at 140 g/ha; 20-22 d; listed as (1) K-salt
Experimental: as §1, §2, §3, §4, §5, §6, §7

[8] = system: LAMPU (purple deadnettle); assay: as above; assay type: in vivo, Lamium purpureum; settings: 20-22 d
Experimental: as §1, §2, §3, §4, §5, §6, §7

[9] = system: PAPRH (corn poppy); assay: as above; assay type: in vivo, Papaver rhoeas; settings: 20-22 d
Experimental: as §1, §2, §3, §4, §5, §6, §7

[10] = applied alone at 8.75 g/ha, listed as (1) K-salt
[11] = applied alone at 35 g/ha, listed as (1) K-salt
[12] = applied alone at 140 g/ha, listed as (1) K-salt

## COc1c(Cl)ccc(-c2cc(N)c(Cl)c(C(=O)O)n2)c1F [Compound (1) K-salt, 4-amino-3-chloro-6-(4-chloro-2-fluoro-3-methoxyphenyl)pyridine-2-carboxylic acid]
[1]; [10]
  TRZAS Ob (observed injury): 15%
[1]; [11]
  TRZAS Ob (observed injury): 43%
[1]; applied alone at 70 g/ha, listed as (1) K-salt
  TRZAS Ob (observed injury): 11%
[1]; [12]
  TRZAS Ob (observed injury): 52%
[2]; [10]
  HORVS Ob (observed injury): 25%
[2]; [11]
  HORVS Ob (observed injury): 38%
[2]; [12]
  HORVS Ob (observed injury): 45%
[3]
  SASKR Ob (observed injury): 87%
[4]
  MATCH Ob (observed injury): 88%
[5]
  VIOTR Ob (observed injury): 63%
[6]
  KCHSC Ob (observed injury): 100%
[7]
  VERPE Ob (observed injury): 87%

## O=C(O)COc1ccc(Cl)c2cccnc12 [Cloquintocet-acid, [(5-chloro-8-quinolinyl)oxy]acetic acid]
[8]; applied alone at 0.55 g/ha
  LAMPU Ob (observed injury): 0%
[8]; applied alone at 1.1 g/ha
  LAMPU Ob (observed injury): 0%
[8]; applied alone at 2.2 g/ha
  LAMPU Ob (observed injury): 0%
[8]; applied alone at 4.4 g/ha
  LAMPU Ob (observed injury): 0%
[9]; applied alone at 0.55 g/ha
  PAPRH Ob (observed injury): 0%
[9]; applied alone at 1.1 g/ha
  PAPRH Ob (observed injury): 0%
[9]; applied alone at 2.2 g/ha
  PAPRH Ob (observed injury): 0%
[9]; applied alone at 4.4 g/ha
  PAPRH Ob (observed injury): 0%
[1]; applied alone at 0.55 g/ha
  TRZAS Ob (observed injury): 0%
[1]; applied alone at 1.1 g/ha
  TRZAS Ob (observed injury): 0%
[1]; applied alone at 2.2 g/ha
  TRZAS Ob (observed injury): 0%
[1]; applied alone at 4.4 g/ha
  TRZAS Ob (observed injury): 0%
[2]; applied alone at 0.55 g/ha
  HORVS Ob (observed injury): 0%
[2]; applied alone at 1.1 g/ha
  HORVS Ob (observed injury): 0%
[2]; applied alone at 2.2 g/ha
  HORVS Ob (observed injury): 0%
[2]; applied alone at 4.4 g/ha
  HORVS Ob (observed injury): 0%
